{"source": "patent US4018925A", "about": "“Method of arresting bacterial growth with certain selected dichloro-2,2,5,5-tetrasubstituted-3-6-piperazinediones” (Interx Research Corporation, priority 1975, dated 1977)", "key": {"Pseud. aeruginosa": {"test_system": "Pseud. aeruginosa", "assay": "Antibacterial activity: time required for complete sterilization (modified serial dilution method)", "assay_type": "cell-based, Pseud. aeruginosa ATCC 9027", "source_text": "(§1) The procedure to determine the antibacterial activity of 1,4-dichloro-2,2,5,5-tetramethyl-3,6-piperazinedione was based primarily on a modification of the serial dilution method of analysis. However, instead of determining the minimum inhibitory concentration parameters for the compound investigated, applicants alternatively chose to determine the bactericidal endpoint for a given concentration of the compound investigated. Consequently, applicants studies were established to determine the time required for complete sterilization of the micro-organism tested, when exposed to a given concentration of the compound investigated.\n(§2) Nutrient Broth B.B.L. -- 8g/1000 ml. distilled water. The broth contains 5g. gelysate peptone and 3g. beef extract. The solution has a pH of 6.9.\n(§3) Nutrient Agar -- 23g/1000 ml. distilled water. The nutrient contains 5g. gelysate peptone, 3g. beef extract and 15g. agar.\n(§4) Horse Serum T.C. -- 10% horse serum solution in distilled water. The serum solution was freshly prepared and adjusted to a pH of 7 using carbon dioxide prior to its use.\n(§5) A stock solution of the isolated compound (1,4,dichloro-2,2,5,5-tetramethyl-3,6-piperazinedione) was prepared using an appropriate buffered solution.\n(§6) For screening in the absence of a denaturing agent (e.g., horse serum) an equal volume of distilled water and the resulting solution was subjected to the screen.\n(§7) For screening in the presence of a denaturing agent, a volume of the stock solution was diluted using an equal volume of 10% horse serum. When necessary, the final solution was adjusted to the desired pH using 1N HCL and the solution was permitted to stand at room temperature for thirty minutes prior to the screening procedure.\n(§8) To 5 ml. of the stock solution being evaluated, there was added 0.2 ml. of an overnight broth culture containing the particular micro-organism being investigated (see above). At time intervals of 0.5, 1, 2, 3, 4, 5, . . . minutes, a loop of this suspension was subcultured into 5 ml. of a sterile nutrient broth. All the samples were then incubated at 37° C for seven days with daily observation for evidence of bacterial growth. The time interval reported is for that sample in which no bacterial growth was observed after the incubation period.\n(§9) To 5 ml. of a sterile 0.9% sodium chloride solution, there was added 0.2 ml. of an overnight broth culture containing the particular micro-organismbeing investigated. A loop of this suspension was subcultured into 5 ml. of a sterile nutrient broth and incubated at 37° C for seven days.\n(§10) To 5 ml of a sterile nutrient broth, there was added a loop of the 1,4-dichloro-2,2,5,5-tetramethyl-3,6-piperazinedione solution and the solution was mixed immediately. To this solution, there was then added a loop of an overnight broth culture which was diluted 25x with a 0.9% sodium chloride solution. Incubation was carried out for seven days at a temperature of 37° C.\n(§11) At the same time intervals used for subculturing the test solution into nutrient broth during the screening procedure, a loop of the test solution was also subcultured onto sterile nutrient agar plates. This technique was useful for observing the characteristic colonial morphology of each organism.\n(§12) The entire screening procedure was conducted for each buffered solution using the buffered solution rather than the 1,4-dichloro-2,2,5,5-tetramethyl-3,6-piperazinedione solution in the procedure."}, "E. coli": {"test_system": "E. coli", "assay": "Antibacterial activity: time required for complete sterilization (modified serial dilution method)", "assay_type": "cell-based, E. coli ATCC 10536", "source_text": "as §1, §2, §3, §4, §5, §6, §7, §8, §9, §10, §11, §12"}, "Kleb. pneumoniae": {"test_system": "Kleb. pneumoniae", "assay": "Antibacterial activity: time required for complete sterilization (modified serial dilution method)", "assay_type": "cell-based, Kleb. pneumoniae ATCC 10031", "source_text": "as §1, §2, §3, §4, §5, §6, §7, §8, §9, §10, §11, §12"}, "Staph. epidermidis": {"test_system": "Staph. epidermidis", "assay": "Antibacterial activity: time required for complete sterilization (modified serial dilution method)", "assay_type": "cell-based, Staph. epidermidis ATCC 12228", "source_text": "as §1, §2, §3, §4, §5, §6, §7, §8, §9, §10, §11, §12"}, "[1]": {"assay": "Stability of N-chloramines in aqueous solution (half-life, iodometric and/or spectrophotometric)", "assay_type": "physicochemical", "conditions": "for half-life: temperature 40", "procedure": "The stability of the compound, 1,4-dichloro-2,2,5,5-tetramethyl-3,6-piperazinedione in aqueous solution was determined by (1) following the disappearance of the positive chlorine concentration of the N-Chloramine solution iodometrically and/or (2) following the decrease in the absorbance at the maximum wavelength spectrophotometrically.\nThe data obtained was interpreted in terms of a first order kinetic process and the half-life of said compound was reported in units of time at the condition under which they were determined."}, "Staph. aureus": {"test_system": "Staph. aureus", "assay": "Antibacterial activity: time required for complete sterilization (modified serial dilution method)", "assay_type": "cell-based, Staph. aureus ATCC 6538", "source_text": "as §1, §2, §3, §4, §5, §6, §7, §8, §9, §10, §11, §12"}, "Bord. bronchiseptica": {"test_system": "Bord. bronchiseptica", "assay": "Antibacterial activity: time required for complete sterilization (modified serial dilution method)", "assay_type": "cell-based, Bord. bronchiseptica ATCC 4617", "source_text": "as §1, §2, §3, §4, §5, §6, §7, §8, §9, §10, §11, §12"}, "[2]": {"conditions": "0.1M Na2B4O7 pH8.8, diluent H2O, 0.62 × 10^-3 M (146PPM), positive Cl 43 PPM"}, "[3]": {"conditions": "0.1M NaH2PO4, diluent H2O, 0.52 × 10^-3 M, positive Cl 36 PPM"}, "[4]": {"conditions": "0.1M NaH2PO4 pH7.0, diluent serum (10% horse serum), 0.52 × 10^-3 M (126PPM), positive Cl 36 PPM"}, "[5]": {"conditions": "0.1M NaOAc pH 4.6, diluent H2O, 0.59 × 10^-3 M (139 PPM), positive Cl 41 PPM"}, "[6]": {"conditions": "0.1M NaOAc pH 4.6, diluent serum (10% horse serum), 0.59 × 10^-3 M (139 PPM), positive Cl 41 PPM"}}}
{"smiles": "CC1(C)C(=O)N(Cl)C(C)(C)C(=O)N1Cl", "note": "[1,4-dichloro-2,2,5,5-tetramethyl-3,6-piperazinedione]", "values": [{"measurement": "Antibacterial activity time, 9027", "setting": "Pseud. aeruginosa; [2]", "value": 4, "unit": "min"}, {"measurement": "Antibacterial activity time, 9027", "setting": "Pseud. aeruginosa; [3]", "value": 5, "unit": "min"}, {"measurement": "Antibacterial activity time, 9027", "setting": "Pseud. aeruginosa; [4]", "value": "> 15", "unit": "min"}, {"measurement": "Antibacterial activity time, 9027", "setting": "Pseud. aeruginosa; [5]", "value": 3, "unit": "min"}, {"measurement": "Antibacterial activity time, 9027", "setting": "Pseud. aeruginosa; [6]", "value": "> 10", "unit": "min"}, {"measurement": "Antibacterial activity time, 10536", "setting": "E. coli; [2]", "value": 1, "unit": "min"}, {"measurement": "Antibacterial activity time, 10536", "setting": "E. coli; [3]", "value": 1, "unit": "min"}, {"measurement": "Antibacterial activity time, 10536", "setting": "E. coli; [4]", "value": "> 15", "unit": "min"}, {"measurement": "Antibacterial activity time, 10536", "setting": "E. coli; [5]", "value": 1, "unit": "min"}, {"measurement": "Antibacterial activity time, 10536", "setting": "E. coli; [6]", "value": "> 10", "unit": "min"}, {"measurement": "Antibacterial activity time, 10031", "setting": "Kleb. pneumoniae; [2]", "value": 4, "unit": "min"}, {"measurement": "Antibacterial activity time, 10031", "setting": "Kleb. pneumoniae; [3]", "value": 4, "unit": "min"}, {"measurement": "Antibacterial activity time, 10031", "setting": "Kleb. pneumoniae; [4]", "value": "> 15", "unit": "min"}, {"measurement": "Antibacterial activity time, 10031", "setting": "Kleb. pneumoniae; [5]", "value": 2, "unit": "min"}, {"measurement": "Antibacterial activity time, 10031", "setting": "Kleb. pneumoniae; [6]", "value": "> 10", "unit": "min"}, {"measurement": "Antibacterial activity time, 12228", "setting": "Staph. epidermidis; [2]", "value": 2, "unit": "min"}, {"measurement": "Antibacterial activity time, 12228", "setting": "Staph. epidermidis; [3]", "value": 2, "unit": "min"}, {"measurement": "Antibacterial activity time, 12228", "setting": "Staph. epidermidis; [4]", "value": "> 15", "unit": "min"}, {"measurement": "Antibacterial activity time, 12228", "setting": "Staph. epidermidis; [5]", "value": 2, "unit": "min"}, {"measurement": "Antibacterial activity time, 12228", "setting": "Staph. epidermidis; [6]", "value": "> 15", "unit": "min"}, {"measurement": "half-life", "setting": "[1]; 0.1M Na2B4O7 pH 9.3", "value": 38, "unit": "h"}, {"measurement": "half-life", "setting": "[1]; 0.1M NaH2PO4 pH 7.0", "value": 332, "unit": "h"}, {"measurement": "half-life", "setting": "[1]; 0.1M NaOAc pH 4.6", "value": 3070, "unit": "h"}, {"measurement": "Stability (half-life) compared with 1,4-dichloro-2,5-piperazinedione", "setting": "[1]; same pH (4.6, 7.0 and 9.3)", "value": "far greater stability (half-life)"}, {"measurement": "Antibacterial activity time, 6538", "setting": "Staph. aureus; [2]", "value": 4, "unit": "min"}, {"measurement": "Antibacterial activity time, 6538", "setting": "Staph. aureus; [3]", "value": 4, "unit": "min"}, {"measurement": "Antibacterial activity time, 6538", "setting": "Staph. aureus; [4]", "value": "> 15", "unit": "min"}, {"measurement": "Antibacterial activity time, 6538", "setting": "Staph. aureus; [5]", "value": 3, "unit": "min"}, {"measurement": "Antibacterial activity time, 6538", "setting": "Staph. aureus; [6]", "value": "> 15", "unit": "min"}, {"measurement": "Antibacterial activity time, 4617", "setting": "Bord. bronchiseptica; [2]", "value": 4, "unit": "min"}, {"measurement": "Antibacterial activity time, 4617", "setting": "Bord. bronchiseptica; [3]", "value": 3, "unit": "min"}, {"measurement": "Antibacterial activity time, 4617", "setting": "Bord. bronchiseptica; [4]", "value": "> 15", "unit": "min"}, {"measurement": "Antibacterial activity time, 4617", "setting": "Bord. bronchiseptica; [5]", "value": 1, "unit": "min"}, {"measurement": "Antibacterial activity time, 4617", "setting": "Bord. bronchiseptica; [6]", "value": "> 10", "unit": "min"}]}
{"smiles": "O=C1CN(Cl)C(=O)CN1Cl", "note": "[1,4-dichloro-2,5-piperazinedione, reference compound]", "values": [{"measurement": "half-life", "setting": "[1]; 0.1M Na2B4O7 pH 9.3", "value": 0.717, "unit": "h"}, {"measurement": "half-life", "setting": "[1]; 0.1M NaH2PO4 pH 7.0", "value": 0.883, "unit": "h"}, {"measurement": "half-life", "setting": "[1]; 0.1M NaOAc pH 4.6", "value": 15.5, "unit": "h"}]}
